From patent US8101180B2, “Anti-IGF-IR and/or anti-insulin/IGF-I hybrid receptors antibodies and uses thereof” (Pierre Fabre Medicament, priority 2002, dated 2012)
“Also recorded” adds a separate entry of the source.

Legend:
MCF-7 cells [1] = assay: Cell cycle of MCF-7 cells with IGF1; assay type: cell-based, human; conditions: MCF-7 cells, 24 hours
Procedure: The inhibition of the cell growth observed in vitro on the line MCF-7 should be manifested by an effect on the cell cycle. In order to reply to this question, 4·10^5 cells are inoculated into 6-well plates. […] After incubation for 24 hours, the cells are recovered for the study of the cell cycle.

MCF-7 tumor = MCF-7 tumor growth in nude mice (subcutaneous xenograft); assay type: in vivo; conditions: for inhibition of MCF-7 tumor growth in vivo, murine versus humanized antibody: 125 μg/dose twice a week i.p. (Example 36)
Procedure: The in vivo selection was carried out in an established tumor model. In order to do this, nude mice received a subcutaneous implant of slow-release estrogen, indispensable for the taking of the tumor in a murine model. Twenty-four hours after implantation of the estrogens, 5·10^6 MCF-7 cells are grafted onto the right flank of the mouse subcutaneously. Five days after this cell graft, the tumors are measurable and batches of 6 mice are formed at random. The treatment of the mice is carried out twice per week, during 5 to 6 weeks, at the dose of 250 μg/dose/mouse. In the control group, the mice are treated in the same fashion with a murine control isotype. […] Another non exclusive hypothesis could be the recognition by these antibodies of the atypical IGF-IR as described in the paper of Siddle et al., (Siddle et al., 1994, Horn Res. 41(suppl. 2):56-65).
The long-term use of tamoxifen is associated with a significant increase in the risk of endometrial cancer (Fisher et al., J. of National Cancer Institute, 86, 7:527-537, 1994; VIDAL 2000, 1975-1976) and of collateral recurrence of E2-independent cancer of the breast (Li C. I. et al., J. Natl. Cancer Inst., July 4, 93(13):1008-1013, 2001). […] In order to do this, 7·10^6 MCF-7 cells were implanted sc (subcutaneously) in nude mice, 24 hours after implantation in these same mice of a grain of estradiol with prolonged release (0.72 mg/tablet liberated over 60 days), indispensable for the establishment of any E2-dependent human tumor in this animal species. Five days after this implantation, the tumors are measured and groups of 6 mice are formed. […] The tamoxifen is administered daily for 4 weeks except at the weekend. […] A study was previously carried out in order to verify that the solvent alone is without influence on the tumor growth.
To do this, 5·10^6 A549 cells were implanted subcutaneously in nude mice. Five days after this implantation, the tumors were measured and groups of 6 mice were formed. […] In the MCF-7 breast tumor model, a sustained-release oestradiol granule (0.72 mg/tablet released over 60 days) is implanted subcutaneously 24 hours before implantation of the cells. This granule is essential to the establishment of any E2-dependent human tumor in this animal species.

IR = assay: Immunoprecipitation of IR from R−/IR-A and R−/IR-B cell lysates; assay type: binding
From the text: (§1) The used cells for this study are listed thereafter: • R+: R− fibroblasts stably transfected with the IGF-I receptor (IGF-IR) cDNA • R−/IR-A: R− fibroblasts stably transfected with the insulin receptor isoform A (IR-A) cDNA • R−/IR-B:R− fibroblasts stably transfected with the insulin receptor isoform B (IR-B) cDNA • R+/IR-A: R− fibroblasts stably co-transfected with the IGF-I and the insulin receptor isoform A cDNA and, therefore, expressing hybrid receptors A (Hybrid-RsA) • R+/IR-B: R− fibroblasts stably co-transfected with the IGF-I and the insulin receptor isoform B cDNA and, therefore, expressing hybrid receptors B (Hybrid-RsB)
(§2) For the obtention of cellular lysat, cells were solubilized in RIPA buffer and 4 mg protein used for immunoprecipitation.
(§3) Following immunoprecipitation, the pellet was resuspended in 2× sample buffer and subjected to SDS-PAGE (7.5% polyacrylamide).
(§4) Filters were blotted as follows: Filters containing R+ lysates (and therefore only IGF-IR) with an anti-IGF-IR β-subunit (Santa Cruz). Filters containing lysates from all the remaining cells with an antibody anti-IR β-subunit (Santa Cruz).

A549 tumor = assay: A549 non-small cell lung tumor subcutaneous xenograft; assay type: in vivo, nude mice; conditions: s.c. xenograft; for inhibition of A549 tumor growth in vivo, murine versus humanized antibody: 125 μg/dose twice per week i.p.
Procedure: Navelbine is a chemotherapy compound indicated in non-small cell cancer of the lung and in metastatic cancer of the breast. […] For this study, 5·10^6 A549 cells were grafted subcutaneously on the right flank of the mouse. Five days after the cell graft, the tumors are measurable and the treatments with MAb and/or navelbine are commenced. The MAb dose is always 250 μg/dose/mouse, twice per week, intra-peritoneally. Concerning navelbine, it will be administered at the maximum dose tolerated by the mouse or 10 mg/kg, intraperitoneally. For this treatment three injections will be carried out at intervals of 7 days. During the coadministrations, the two products are mixed before injection.
For this study, nude mice are grafted s.c. with 5·10^6 A549 cells. Five days after the cell graft, the tumors are measured and a homogeneous batch of mice in terms of tumor volume is formed. Starting from this batch, groups of 6 mice are generated at random.
To do this, 5·10^6 A549 cells were implanted subcutaneously in nude mice. Five days after this implantation, the tumors were measured and groups of 6 mice were formed. […] This granule is essential to the establishment of any E2-dependent human tumor in this animal species.
These conjugates are administered according to the same modes as the groups given the chemotherapy compounds alone; • the animals of the control batch are given injections of PBS, administered according to the same frequency.
The weight of the mice and the tumor volume are evaluated twice a week. The tumor volumes are calculated according to the formula: ½ (length·width·height).

Hybrid-R = assay: Immunoprecipitation of Hybrid-R from R+/IR-A and R+/IR-B cell lysates; assay type: binding
From the text: as §1, §2, §3, §4

MCF-7 cells [2] = assay: Apoptosis of MCF-7 cells (Annexin V-FITC/DAPI flow cytometry); assay type: cell-based, human; conditions: antibody 10 μg/ml + doxorubicin 2 μg/ml, 24 hours
Procedure: As indicated above, IGF-IR is capable of conferring protection against apoptosis when it is overexpressed on the surface of cells. […] In these experiments, the MCF-7 cells are inoculated at 2·10^4/cm^2 in Petri dishes and cultured for 24 h in RPMI without phenol red supplemented with 10% of fetal calf serum (FCS). The cells are then washed twice with PBS and put back into culture in medium with 0% FCS. They are allowed an adaptation time of 10 minutes at 37° C. before the addition of the antibodies at 10 μg/ml. After an extra 10 minutes at 37° C., recombinant IGF-I (Sigma) is added to the culture medium to a final concentration of 50 ng/ml. The cells are left at 37° C. again for one hour in order to allow the attachment of the antibodies and of the IGF-I. Finally, the doxorubicin (Sigma) is added to the culture medium at 2 μg/ml and the cells are incubated for 24 hours at 37° C.
The experiments have likewise been conducted with navelbine at a concentration of 10 μg/ml.
The analysis of the cell viability is carried out by flow cytometric analysis after labeling with the annexin V-FITC (20 minutes, 4° C.) and DAPI (2 μg/ml). The percentage of dead cells considered is the labeled population Annexin+/DAPI+. The antibody 5C2 is used as a control isotype.

[3] = 250 μg/dose/mouse twice per week i.p.

Chain of Hybrid-R (P08069 31-736 limits assumed): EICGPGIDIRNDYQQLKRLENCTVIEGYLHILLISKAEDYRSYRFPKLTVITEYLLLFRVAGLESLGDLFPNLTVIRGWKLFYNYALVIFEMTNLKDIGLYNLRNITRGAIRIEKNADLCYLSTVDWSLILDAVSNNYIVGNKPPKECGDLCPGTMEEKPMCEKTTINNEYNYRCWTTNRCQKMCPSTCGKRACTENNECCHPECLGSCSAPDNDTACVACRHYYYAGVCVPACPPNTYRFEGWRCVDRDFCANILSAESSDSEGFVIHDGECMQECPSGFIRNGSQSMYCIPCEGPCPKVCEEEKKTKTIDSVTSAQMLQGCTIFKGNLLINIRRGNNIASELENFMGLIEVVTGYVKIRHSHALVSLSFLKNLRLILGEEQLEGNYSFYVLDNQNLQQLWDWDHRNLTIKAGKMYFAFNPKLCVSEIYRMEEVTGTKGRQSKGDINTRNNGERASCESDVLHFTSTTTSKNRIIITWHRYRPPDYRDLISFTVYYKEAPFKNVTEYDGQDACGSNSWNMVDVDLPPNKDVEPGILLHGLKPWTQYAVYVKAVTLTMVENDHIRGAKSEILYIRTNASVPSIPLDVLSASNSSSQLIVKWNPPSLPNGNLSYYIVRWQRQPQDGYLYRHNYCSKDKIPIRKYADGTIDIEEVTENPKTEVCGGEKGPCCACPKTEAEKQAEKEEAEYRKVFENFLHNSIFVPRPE
Chain of Hybrid-R (P08069 741-1367 limits assumed): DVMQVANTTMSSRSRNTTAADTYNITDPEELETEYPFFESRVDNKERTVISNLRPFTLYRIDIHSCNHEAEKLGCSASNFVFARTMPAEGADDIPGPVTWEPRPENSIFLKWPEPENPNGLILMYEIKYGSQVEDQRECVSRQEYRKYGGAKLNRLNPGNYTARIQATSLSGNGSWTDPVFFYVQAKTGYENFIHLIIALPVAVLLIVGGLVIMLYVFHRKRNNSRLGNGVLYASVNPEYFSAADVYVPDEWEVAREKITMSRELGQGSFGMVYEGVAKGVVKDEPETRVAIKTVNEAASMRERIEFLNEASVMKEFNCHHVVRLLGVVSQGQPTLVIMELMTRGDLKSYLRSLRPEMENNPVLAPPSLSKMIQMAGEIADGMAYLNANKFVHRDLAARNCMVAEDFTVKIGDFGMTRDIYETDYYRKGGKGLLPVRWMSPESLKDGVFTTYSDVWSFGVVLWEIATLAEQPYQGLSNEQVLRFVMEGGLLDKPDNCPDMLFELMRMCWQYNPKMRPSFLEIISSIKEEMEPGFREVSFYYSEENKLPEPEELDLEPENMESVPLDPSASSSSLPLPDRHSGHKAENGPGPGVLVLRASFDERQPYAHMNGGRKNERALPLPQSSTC

Substance	inhibition of IGF1-induced entry into the cell cycle (MCF-7 cells [1])	inhibition of MCF-7 tumor growth in vivo, murine versus humanized antibody (MCF-7 tumor)	inhibition of MCF-7 tumor growth in vivo (MCF-7 tumor; [3])	immunoprecipitation of IR (IR)	inhibition of A549 tumor growth in vivo, murine versus humanized antibody (A549 tumor)	inhibition of A549 tumor growth in vivo (A549 tumor; [3])	recognition of Hybrid-R by immunoprecipitation (Hybrid-R)	potentiation of doxorubicin-induced cell death (MCF-7 cells [2])	inhibition of MCF-7 tumor growth in vivo, murine versus humanized antibody (MCF-7 tumor; listed as 7H2HM)
7C10: murine monoclonal anti-IGF-IR IgG1 secreted by the hybridoma deposited at the CNCM under the number I-2717	significant inhibition of the entry into the cycle	significant inhibition of tumor growth	very significant inhibition of the tumor growth; also recorded: significantly inhibiting the growth; also recorded: significantly more efficacious than tamoxifen	Neither 7C10 nor h7C10 appreciably immunoprecipitate IR	significant inhibition of the tumor growth	significant activity; also recorded: as active as the conventional treatment with navelbine; also recorded: significant decrease in the tumor growth	recognizes Hybrid-R	significant increase in cell death	
h7C10: humanized 7C10 anti-IGF-IR antibody, isotype IgG1 (humanized 1 written 7H2HM)	significant inhibition of the entry into the cycle	exactly the same intensity as that observed with its murine counterpart		Neither 7C10 nor h7C10 appreciably immunoprecipitate IR	exactly the same intensity as that observed with its murine counterpart		recognizes Hybrid-R	same effect	perfectly comparable with the murine antibody 7C10
